Measurements from PubChem BioAssay (NCI).
Where “and” joins values, the source holds several entries; their conditions need not be identical. Equal values may be shown once.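 96-well plates; 48 h exposure; 5 concentrations. Endpoints by linear interpolation between flanking doses. Not reached: highest tested concentration assigned. The concentration for 50% growth inhibition is given as GI50. TGI: concentration producing complete growth inhibition.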

Columns and labels:
Assay in all cases: growth of human tumour cells (NCI), 48 h
[1] = system: RXF 393 renal
[2] = system: NCI-H460 lung
[3] = system: UACC-257 melanoma
[4] = system: NCI-H226 lung
[5] = system: A498 renal
[6] = system: U251 CNS
[7] = system: SN12C renal
[8] = system: SF-268 CNS
[9] = system: UACC-62 melanoma
[10] = system: LOX IMVI melanoma

SMILES | GI50 [1] | TGI [1] | GI50 [2] | TGI [2] | GI50 [3] | TGI [3] | GI50 [4] | GI50 [5] | TGI [5] | GI50 [6] | TGI [6] | GI50 [7] | TGI [7] | GI50 [8] | TGI [8] | GI50 [9] | TGI [9] | GI50 [10] | TGI [10] | TGI [4]
C=CCN(/C=C1\C(=O)O[C@H](COC)[C@@]2(C)C1=C(O)C(=O)C1=C2[C@H](OC(C)=O)C[C@]2(C)C(=O)CC[C@@H]12)CC=C | 0.00922 µM and 0.0149 µM | 0.261 µM and 0.196 µM | 0.278 µM and 0.374 µM | 20 µM and > 100 µM | 9.18 µM and 2.26 µM | 20 µM and > 100 µM | 0.364 µM and 1.16 µM | 0.0671 µM and 0.049 µM | 2.73 µM and 1.26 µM | 1.6 µM and 3.35 µM | 20 µM and > 100 µM | 1.99 µM and 1.07 µM | 20 µM and > 100 µM | 0.992 µM and 1.46 µM | 20 µM and > 100 µM | 0.11 µM and 0.075 µM | 1.38 µM and 2.38 µM | 0.547 µM and 1.89 µM | 20 µM and 21.4 µM | 
C[C@H]1CC[C@@H]2[C@@H](C)[C@H]3[C@H](C[C@H]4[C@@H]5CC=C6C[C@@H](O)CC[C@]6(C)[C@H]5C[C@H](O)[C@]34C)N2C1 |  | > 100 µM |  | > 100 µM |  | > 100 µM |  |  | > 100 µM |  | > 100 µM |  | > 100 µM |  | > 100 µM |  | > 100 µM |  | > 100 µM | > 100 µM
COc1ccc(-c2nn(-c3cccc(NC(=O)Nc4cc(C(F)(F)F)cc(C(F)(F)F)c4)c3)cc2-c2ccncc2)cc1Cl | 0.849 µM | 2.4 µM | 0.872 µM | 4.9 µM | 1.07 µM | 3.74 µM | 1.33 µM | 0.507 µM | 3.17 µM | 0.731 µM | 1.73 µM | 1.27 µM | 7.95 µM | 1.59 µM | 8.68 µM | 0.948 µM | 3.11 µM | 1.51 µM | 5.64 µM | 6.35 µM
CCOC(=O)c1c(C)n2c(=O)cc(C)c3c(OC(C)=O)c(OC(C)=O)cc1c32 | 3.43 µM | 15.8 µM | 4.01 µM | 18.9 µM | 7.64 µM | 25.3 µM | 10.1 µM | 14 µM | 52.1 µM | 4.76 µM | > 57.7 µM | 4.97 µM | 28.2 µM | 5.26 µM | > 74.1 µM | 4.22 µM | 14.4 µM | 4.52 µM | 22.9 µM | 35.7 µM
Clc1ccc(-c2nn3ncccc3c2-c2ccnc(Nc3ccccc3)n2)cc1 | 6.56 µM | > 25 µM | 6.34 µM | > 25 µM | > 15.1 µM | > 25 µM | > 13.1 µM | 4.42 µM | > 23.3 µM | 14.9 µM | > 25 µM | 8.29 µM | > 25 µM | 11.5 µM | > 25 µM | > 13 µM | > 25 µM | 9.23 µM | > 25 µM | > 25 µM
CCCCN(CCCC)CCCN=c1nc2c(c(N)n1-c1ccccc1)c(=S)n(-c1ccccc1)c(=S)n2-c1ccccc1 | 1.96 µM | 4.75 µM | 0.483 µM | 1.71 µM | 0.609 µM | 1.27 µM | 1.61 µM | 1.06 µM | 2.39 µM | 0.34 µM | 1.27 µM | 1.41 µM | 2.79 µM | 1.14 µM | 2.47 µM | 0.714 µM | 2.02 µM | 0.303 µM | 0.773 µM | 3.11 µM
Cc1nc(/N=C(\N)NC(=O)Nc2ccccc2Cl)sc1C | 0.399 µM | 2.11 µM | 0.367 µM | 1.62 µM | 1.44 µM | > 100 µM | 1.15 µM | 0.249 µM | 1.1 µM | 0.439 µM | 6.13 µM | 0.739 µM | > 100 µM | 1.35 µM | > 100 µM | 0.488 µM | > 100 µM | 0.533 µM | > 100 µM | 14.9 µM
N#Cc1c(NC(=O)CN2CCOCC2)sc2c1CCCC2 | > 25 µM | > 25 µM | > 25 µM | > 25 µM | > 25 µM | > 25 µM | > 25 µM | 3.2 µM | > 25 µM | > 25 µM | > 25 µM | > 25 µM | > 25 µM | > 25 µM | > 25 µM | > 25 µM | > 25 µM | > 25 µM | > 25 µM | > 25 µM
COc1ccc(Cc2cnc(NC(=O)c3sc4ccccc4c3Cl)s2)cc1 | 0.179 µM | 0.579 µM | 0.365 µM | > 100 µM | 25.7 µM | > 100 µM | 1.43 µM | 0.222 µM | 12.7 µM | 0.382 µM | > 100 µM | 0.687 µM | > 100 µM | 1.26 µM | > 100 µM | 0.468 µM | > 100 µM | 1.52 µM | > 100 µM | > 100 µM
